Reference: patent US20200163984A1, “USE OF ISOVALERYL SPIRAMYCIN I, II AND/OR III IN MANUFACTURING MEDICAMENT FOR TREATING AND/OR PREVENTING TUMOR, AND MEDICAMENT” (SHENYANG FUYANG PHARMACEUTICAL TECHNOLOGY CO., LTD., priority 2017, published 2020)

Columns and labels:
[1] = tested on: transplanted tumor of HT-29 cells; experiment: HT-29 transplanted tumor in nude mice; settings: for Inhibition Rate (%) / Tumor Weight: HT-29 nude mice; for Tumor Volume (mm3) (d30): d 30
Protocol: (§1) Then cell concentration was adjusted to 1×10^7/ml with matrigel, then each nude mouse was inoculated subcutaneously with 0.2 ml of cells at its right armpit and recorded as the first day of inoculation. When the tumor grows to be greater than or equal to 100 mm^3, the mice were randomly divided into 11 groups with 6 mice in each group: isovaleryl spiramycin I groups with doses of 25, 50 and 100 mg/kg, isovaleryl spiramycin II groups with doses of 25, 50 and 100 mg/kg, and isovaleryl spiramycin III groups with doses of 25, 50 and 100 mg/kg. Each group was continuously administered intragastrically for 30 days with a dose of 20 ml/kg. The mice were sacrificed the next day after drug withdrawal and the indicators were tested. The long diameter and short diameter of the tumor, and the body weight of each mouse were recorded every 3 days from drug administration to nude mouse sacrifice.
(§2) The body weight of the nude mice and the long diameter (a) and short diameter (b) of the transplanted tumor were measured every 3 days, and the tumor volume (v), relative tumor volume (RTV) and relative tumor proliferation rate (T/C) are calculated respectively according to the following formulas, wherein V=a×b^2/2; RTV=V/V0 (V0 is the tumor volume before administration, V is the tumor volume before sacrifice), and T/C (%)=treatment group RTV/model control group RTV×100%.
(§3) Each mouse was weighed and sacrificed. After the tumor was completely stripped off from the body of the mouse, the non-tumor tissues such as blood stains and fat were removed to weigh the tumor and calculate the tumor growth inhibition rate. The average tumor weight of each group of mice is used as an indicator of efficacy. Tumor growth inhibition rate (%)=(1−the average tumor weight of the treatment group/the average tumor weight of the model group)×100%.

[2] = tested on: transplanted tumor of HL60 cells; experiment: HL-60 transplanted tumor in nude mice; settings: for Tumor Volume (mm3) (d30): d 30
Protocol: as §1, with “HL-60 cells in a logarithmic growth phase were taken and subjected to a trypan blue exclusion experiment showing that the cell viability was more than 95%, then the cells were subjected to trypsinization, centrifugation, and supernatant removal. Then” for “Then”, “the” for “the body”
as §2, §3

[3] = tested on: transplanted tumor of human breast cancer cell MCF-7; experiment: MCF-7 transplanted tumor in nude mice
Protocol: as §1, with “group: a model group, a cyclophosphamide group,” for “group:”
as §2, §3

[4] = HT-29, high dose (100 mg/kg in method) i.g. 30 days
[5] = HT-29, low dose (25 mg/kg in method) i.g. 30 days
[6] = HT-29, medium dose (50 mg/kg in method) i.g. 30 days
[7] = HL-60, high dose (100 mg/kg in method) i.g. 30 days
[8] = HL-60, low dose (25 mg/kg in method) i.g. 30 days
[9] = HL-60, medium dose (50 mg/kg in method) i.g. 30 days
[10] = MCF-7, 25 mg/kg (low dose) i.g. 30 days
[11] = MCF-7, 50 mg/kg (medium dose) i.g. 30 days
[12] = MCF-7, 100 mg/kg (high dose) i.g. 30 days

Q: For `COC1C(OC(C)=O)CC(=O)OC(C)CC=CC=CC(OC2CCC(N(C)C)C(C)O2)C(C)CC(CC=O)C1OC1OC(C)C(OC2CC(C)(O)C(OC(=O)CC(C)C)C(C)O2)C(N(C)C)C1O` (stereo not shown) [Isovaleryl spiramycin II, isovaleryl spiramycin II], which “Relative Tumor Proliferation Rate (T/C)” value [1, 4] is on record?
A: 44.05%

Q: And the “tumor growth inhibition rate” value [1, 4]?
A: 55.74%

Q: And the “Relative Tumor Proliferation Rate (T/C)” value [1, 5]?
A: 84.18%

Q: What about the “tumor growth inhibition rate” value [1, 5] of the same compound?
A: 16.24%

Q: And the “tumor volume and relative tumor volume compared with the model group” value (“tumor volume and relative tumor volume” for short) ([1]; HT-29, low, medium and high doses, P<0.05)?
A: significantly lower

Q: And the “Relative Tumor Proliferation Rate (T/C)” value [1, 6]?
A: 79.34%

Q: And the “tumor growth inhibition rate” value [1, 6]?
A: 32.41%

Q: And the “Inhibition Rate (%)” value ([1]; 25 mg/kg)?
A: 16.24%

Q: And the “Tumor Weight” value ([1]; 25 mg/kg)?
A: 1.97 ± 0.34 g

Q: What about the “Inhibition Rate (%)” value ([1]; 50 mg/kg) of the same compound?
A: 32.41%

Q: And the “Tumor Weight” value ([1]; 50 mg/kg)?
A: 1.59 ± 0.49 g

Q: And the “Inhibition Rate (%)” value ([1]; 100 mg/kg)?
A: 55.74%

Q: What about the “Tumor Weight” value ([1]; 100 mg/kg) of the same compound?
A: 1.04 ± 0.40 g

Q: What about the “Relative Tumor Proliferation Rate (T/C)” value ([1]; dose 25 mg/kg) of the same compound?
A: 84.18%

Q: And the “Relative Tumor Volume (RTV)” value ([1]; dose 25 mg/kg)?
A: 12.13 ± 3.40

Q: And the “Tumor Volume (mm3) (d 1)” value ([1]; dose 25 mg/kg)?
A: 163.26 ± 38.80 mm3

Q: And the “Tumor Volume (mm3) (d30)” value ([1]; dose 25 mg/kg)?
A: 1885.85 ± 219.49 mm3

Q: And the “Relative Tumor Proliferation Rate (T/C)” value ([1]; dose 50 mg/kg)?
A: 79.34%

Q: What about the “Relative Tumor Volume (RTV)” value ([1]; dose 50 mg/kg) of the same compound?
A: 11.43 ± 5.13

Q: What about the “Tumor Volume (mm3) (d 1)” value ([1]; dose 50 mg/kg) of the same compound?
A: 142.56 ± 22.44 mm3

Q: And the “Tumor Volume (mm3) (d30)” value ([1]; dose 50 mg/kg)?
A: 1568.80 ± 603.77 mm3

Q: And the “Relative Tumor Proliferation Rate (T/C)” value ([1]; dose 100 mg/kg)?
A: 44.05%

Q: And the “Relative Tumor Volume (RTV)” value ([1]; dose 100 mg/kg)?
A: 6.35 ± 2.87

Q: What about the “Tumor Volume (mm3) (d 1)” value ([1]; dose 100 mg/kg) of the same compound?
A: 156.45 ± 37.20 mm3

Q: And the “Tumor Volume (mm3) (d30)” value ([1]; dose 100 mg/kg)?
A: 921.49 ± 299.38 mm3

Q: What about the “mouse weight compared with the model group” value ([1]; mouse, in vivo) of the same compound?
A: no significant changes

Q: What about the “Body Weight (g) (d1)” value ([1]; mouse, in vivo, 25 mg/kg) of the same compound?
A: 21.04 ± 1.28 g

Q: What about the “Body Weight (g) (d30)” value ([1]; mouse, in vivo, 25 mg/kg) of the same compound?
A: 20.88 ± 1.29 g

Q: And the “Body Weight (g) (d1)” value ([1]; mouse, in vivo, 50 mg/kg)?
A: 21.36 ± 1.35 g

Q: What about the “Body Weight (g) (d30)” value ([1]; mouse, in vivo, 50 mg/kg) of the same compound?
A: 20.9 ± 1.29 g

Q: What about the “Body Weight (g) (d1)” value ([1]; mouse, in vivo, 100 mg/kg) of the same compound?
A: 20.80 ± 0.89 g

Q: And the “Body Weight (g) (d30)” value ([1]; mouse, in vivo, 100 mg/kg)?
A: 21.53 ± 1.08 g

Q: And the “Relative Tumor Proliferation Rate (T/C)” value [2, 7]?
A: 41.36%

Q: And the “tumor growth inhibition rate” value [2, 7]?
A: 51.81%

Q: What about the “Relative Tumor Proliferation Rate (T/C)” value [2, 8] of the same compound?
A: 75.39%

Q: What about the “tumor growth inhibition rate” value [2, 8] of the same compound?
A: 15.92%

Q: And the “tumor volume and relative tumor volume” value ([2]; HL-60, low, medium and high doses, P<0.05)?
A: significantly lower

Q: What about the “Relative Tumor Proliferation Rate (T/C)” value [2, 9] of the same compound?
A: 65.18%

Q: What about the “tumor growth inhibition rate” value [2, 9] of the same compound?
A: 29.48%

Q: What about the “Inhibition Rate (%)” value ([2]; dose 25 mg/kg) of the same compound?
A: 15.92%

Q: What about the “Relative Tumor Proliferation Rate (T/C)” value ([2]; dose 25 mg/kg) of the same compound?
A: 75.39%

Q: And the “Relative Tumor Volume (RTV)” value ([2]; dose 25 mg/kg)?
A: 8.48 ± 1.37

Q: What about the “Tumor Weight” value ([2]; dose 25 mg/kg) of the same compound?
A: 1.90 ± 0.33 g

Q: What about the “Tumor Volume (mm3) (d 1)” value ([2]; dose 25 mg/kg) of the same compound?
A: 189.51 ± 28.58 mm3

Q: What about the “Tumor Volume (mm3) (d30)” value ([2]; dose 25 mg/kg) of the same compound?
A: 1596.76 ± 293.76 mm3

Q: What about the “Inhibition Rate (%)” value ([2]; dose 50 mg/kg) of the same compound?
A: 29.48%

Q: What about the “Relative Tumor Proliferation Rate (T/C)” value ([2]; dose 50 mg/kg) of the same compound?
A: 65.18%

Q: What about the “Relative Tumor Volume (RTV)” value ([2]; dose 50 mg/kg) of the same compound?
A: 7.33 ± 2.36

Q: And the “Tumor Weight” value ([2]; dose 50 mg/kg)?
A: 1.60 ± 0.45 g

Q: And the “Tumor Volume (mm3) (d 1)” value ([2]; dose 50 mg/kg)?
A: 184.06 ± 32.38 mm3

Q: And the “Tumor Volume (mm3) (d30)” value ([2]; dose 50 mg/kg)?
A: 1344.04 ± 466.62 mm3

Q: And the “Inhibition Rate (%)” value ([2]; dose 100 mg/kg)?
A: 51.81%

Q: What about the “Relative Tumor Proliferation Rate (T/C)” value ([2]; dose 100 mg/kg) of the same compound?
A: 41.36%

Q: And the “Relative Tumor Volume (RTV)” value ([2]; dose 100 mg/kg)?
A: 4.65 ± 1.77

Q: And the “Tumor Weight” value ([2]; dose 100 mg/kg)?
A: 1.09 ± 0.34 g

Q: What about the “Tumor Volume (mm3) (d 1)” value ([2]; dose 100 mg/kg) of the same compound?
A: 184.80 ± 33.56 mm3

Q: And the “Tumor Volume (mm3) (d30)” value ([2]; dose 100 mg/kg)?
A: 834.34 ± 308.27 mm3

Q: And the “mouse weight compared with the model group” value ([2]; mouse, in vivo)?
A: no significant changes

Q: And the “Body Weight (g) (d1)” value ([2]; mouse, in vivo, 25 mg/kg)?
A: 20.78 ± 1.31 g

Q: What about the “Body Weight (g) (d30)” value ([2]; mouse, in vivo, 25 mg/kg) of the same compound?
A: 20.59 ± 1.54 g

Q: And the “Body Weight (g) (d1)” value ([2]; mouse, in vivo, 50 mg/kg)?
A: 21.01 ± 1.20 g

Q: And the “Body Weight (g) (d30)” value ([2]; mouse, in vivo, 50 mg/kg)?
A: 20.72 ± 1.29 g

Q: What about the “Body Weight (g) (d1)” value ([2]; mouse, in vivo, 100 mg/kg) of the same compound?
A: 20.65 ± 1.27 g

Q: And the “Body Weight (g) (d30)” value ([2]; mouse, in vivo, 100 mg/kg)?
A: 20.32 ± 1.55 g

Q: What about the “Inhibition Rate (tumor growth inhibition rate)” value [3, 10] of the same compound?
A: 20.55%

Q: What about the “Relative Tumor Proliferation Rate (T/C)” value [3, 10] of the same compound?
A: 79.23%

Q: What about the “Relative Tumor Volume (RTV)” value [3, 10] of the same compound?
A: 13.87 ± 1.53

Q: What about the “Tumor Volume (d 1)” value [3, 10] of the same compound?
A: 104.64 ± 10.69 mm3

Q: And the “Tumor Volume (d 30)” value [3, 10]?
A: 1450.36 ± 218.20 mm3

Q: And the “Tumor Weight” value [3, 10]?
A: 2.16 ± 0.51 g

Q: And the “Inhibition Rate (tumor growth inhibition rate)” value [3, 11]?
A: 41.72%

Q: And the “Relative Tumor Proliferation Rate (T/C)” value [3, 11]?
A: 60.58%

Q: What about the “Relative Tumor Volume (RTV)” value [3, 11] of the same compound?
A: 10.60 ± 1.10

Q: And the “Tumor Volume (d 1)” value [3, 11]?
A: 105.81 ± 11.20 mm3

Q: And the “Tumor Volume (d 30)” value [3, 11]?
A: 1113.42 ± 71.14 mm3

Q: What about the “Tumor Weight” value [3, 11] of the same compound?
A: 1.58 ± 0.51 g

Q: And the “Inhibition Rate (tumor growth inhibition rate)” value [3, 12]?
A: 56.81%

Q: And the “Relative Tumor Proliferation Rate (T/C)” value [3, 12]?
A: 44.45%

Q: What about the “Relative Tumor Volume (RTV)” value [3, 12] of the same compound?
A: 7.78 ± 1.71

Q: And the “Tumor Volume (d 1)” value [3, 12]?
A: 119.69 ± 14.63 mm3

Q: And the “Tumor Volume (d 30)” value [3, 12]?
A: 914.69 ± 130.26 mm3

Q: What about the “Tumor Weight” value [3, 12] of the same compound?
A: 1.17 ± 0.47 g

Q: What about the “Relative Tumor Proliferation Rate (T/C)” value ([3]; MCF-7, 100 mg/kg (high dose) i.g. 30 days, listed as isovaleryl spiramycin II) of the same compound?
A: 44.44%

Q: And the “tumor volume and relative tumor volume” value ([3]; MCF-7, low, medium and high doses, P<0.05)?
A: significantly lower

Q: What about the “mouse weight compared with the model group” value ([3]; mouse, in vivo) of the same compound?
A: no significant changes
